Source: ChEMBL document CHEMBL1132137, “Synthesis and antiviral activity of some N-benzenesulphonylbenzimidazoles” (Bioorg Med Chem Lett, 1999)
Converted amounts (≈) assume the structure as drawn. “And” between values parts separate entries of the source, which are not always exact repeats. Equal values may be shown once.

What was measured:
Vero [1] = assay: Cytotoxicity on the vero cell culture infected with Coxsackie B5 virus at a concentration of 5 ug/mL was determined as cell viability by the MTT test; assay type: functional, Chlorocebus sabaeus
Vero [2] = assay: (§1) Cytotoxicity on the vero cell culture infected with mL and was determined as reduction in protein content by the Lowry test; assay type: functional, Chlorocebus sabaeus; parameters: unit not given here
Vero [3] = assay: Cytotoxicity on the vero cell culture infected with Coxsackie B5 virus at a concentration of 3 ug/mL was determined as cell viability by the MTT test; assay type: functional, Chlorocebus sabaeus
Vero [4] = assay: as §1; assay type: functional, Chlorocebus sabaeus; parameters: unit not given here; remark: listed apart in the source
Coxsackievirus B5 [5] = assay: Antiviral activity against the Coxsackie B5 virus (RNA virus) at a concentration of 3 ug/mL was determined as total cell infectious dose 50/mL (TCID50) by viral yield assay; assay type: functional
Vero [6] = assay: as §1; assay type: functional, Chlorocebus sabaeus
Vero [7] = assay: as §1; assay type: functional, Chlorocebus sabaeus; remark: listed apart in the source
Vero [8] = assay: Cytotoxicity on the vero cell culture infected with Coxsackie B5 virus at a concentration of 4 ug/mL was determined as cell viability by the MTT test; assay type: functional, Chlorocebus sabaeus
Vero [9] = assay: Cytotoxicity on the vero cell culture infected with Coxsackie B5 virus at a concentration of 2 ug/mL was determined as cell viability by the MTT test; assay type: functional, Chlorocebus sabaeus
Coxsackievirus B5 [10] = assay: Antiviral activity against the Coxsackie B5 virus (RNA virus) at a concentration of 4 ug/mL was determined as total cell infectious dose 50/mL (TCID50) by viral yield assay; assay type: functional
Vero [11] = assay: Cytotoxicity on the vero cell culture infected with Coxsackie B5 virus at a concentration of 1 ug/mL was determined as cell viability by the MTT test; assay type: functional, Chlorocebus sabaeus
Coxsackievirus B5 [12] = assay: Antiviral activity against the Coxsackie B5 virus (RNA virus) at a concentration of 2 ug/mL was determined as total cell infectious dose 50/mL (TCID50) by viral yield assay; assay type: functional
Vero [13] = assay: as §1; assay type: functional, Chlorocebus sabaeus; remark: listed apart in the source
Vero [14] = assay: Cytotoxicity on the vero cell culture infected with Coxsackie B5 virus at a concentration of 80 ug/mL was determined as cell viability by the MTT test; assay type: functional, Chlorocebus sabaeus
Coxsackievirus B5 [15] = assay: Antiviral activity against the Coxsackie B5 virus (RNA virus) at a concentration of 80 ug/mL was determined as total cell infectious dose 50/mL (TCID50) by viral yield assay; assay type: functional
Vero [16] = assay: Cytotoxicity on the vero cell culture infected with Coxsackie B5 virus at a concentration of 10 ug/mL was determined as cell viability by the MTT test; assay type: functional, Chlorocebus sabaeus
Coxsackievirus B5 [17] = assay: Antiviral activity against the Coxsackie B5 virus (RNA virus) at a concentration of 5 ug/mL was determined as total cell infectious dose 50/mL (TCID50) by viral yield assay; assay type: functional
Mumps virus [18] = assay: Antiviral activity against the Mumps virus (RNA virus) at a concentration of 5 ug/mL was determined as total cell infectious dose 50/mL (TCID50) by viral yield assay; assay type: functional, Mumps orthorubulavirus
Coxsackievirus B5 [19] = assay: Inhibitory concentration required to reduce viral plaque formation of Coxsackie B5 virus by 50%; assay type: functional, organism-based; conditions: Enterovirus B
Human alphaherpesvirus 1 [20] = assay: Antiviral activity against the Herpes simplex 1 virus (DNA virus) at a concentration of 5 ug/mL was determined as Plaque forming unit/mL(PFU) by plaque assay; assay type: functional
Vaccinia virus [21] = assay: Antiviral activity against the Vaccinia virus (DNA virus) at a concentration of 5 ug/mL was determined as Plaque forming unit/mL(PFU) by plaque assay; assay type: functional, Orthopoxvirus vaccinia
Vaccinia virus [22] = assay: Antiviral activity against the Vaccinia virus (DNA virus) at a concentration of 2 ug/mL was determined as Plaque forming unit/mL(PFU) by plaque assay; assay type: functional, Orthopoxvirus vaccinia
Human alphaherpesvirus 1 [23] = assay: Antiviral activity against the Herpes simplex 1 virus (DNA virus) at a concentration of 2 ug/mL was determined as Plaque forming unit/mL(PFU) by plaque assay; assay type: functional
Mumps virus [24] = assay: Antiviral activity against the Mumps virus (RNA virus) at a concentration of 2 ug/mL was determined as total cell infectious dose 50/mL (TCID50) by viral yield assay; assay type: functional, Mumps orthorubulavirus

With `O=[N+]([O-])c1ccccc1S(=O)(=O)n1c(SCc2ccccn2)nc2cc(Cl)c(Cl)cc21` the Cell viability (Vero [1]) was 0.83, the Cytotoxicity (Vero [2]) was 740.1 and the Cell viability (Vero [3]) was 1.12. It also gave a Cytotoxicity (Vero [4]) of 495.8 and a TCID50 (Coxsackievirus B5 [5]) of 10000000 mL⁻¹.
`O=[N+]([O-])c1ccc(S(=O)(=O)n2c(Sc3ncccc3[N+](=O)[O-])nc3ccccc32)cc1` gave a Cell viability (Vero [1]) of 0.8, a Cytotoxicity (Vero [2]) of 678.6 and a Cell viability (Vero [3]) of 1.36. For the same compound, the Cytotoxicity (Vero [4]) was 508.9 and the TCID50 (Coxsackievirus B5 [5]) was 10000000 mL⁻¹.
With `O=[N+]([O-])c1ccc(S(=O)(=O)n2c(SCc3ccccn3)nc3ccccc32)cc1` the Cytotoxicity (Vero [6]) was 734.2, the Cytotoxicity (Vero [7]) was 744.3 and the Cell viability (Vero [8]) was 1.12. It also gave a Cell viability (Vero [9]) of 1.44 and a TCID50 (Coxsackievirus B5 [10]) of 1000000 mL⁻¹.
With `O=[N+]([O-])c1ccc(S(=O)(=O)n2c(SCc3ccccn3)nc3cc(Cl)c(Cl)cc32)cc1` the Cell viability (Vero [1]) was 0.89, the Cytotoxicity (Vero [2]) was 663.4 and the Cell viability (Vero [3]) was 1.23. For the same compound, the Cytotoxicity (Vero [4]) was 540.8 and the TCID50 (Coxsackievirus B5 [5]) was 1000000 mL⁻¹.
Work on `O=[N+]([O-])c1ccccc1S(=O)(=O)n1c(SCc2ccccn2)nc2ccccc21` yielded a Cytotoxicity (Vero [7]) of 724.1, a Cell viability (Vero [11]) of 1.42 and a TCID50 (Coxsackievirus B5 [12]) of 10000000 mL⁻¹. It also gave a Cell viability (Vero [9]) of 1.02 and a Cytotoxicity (Vero [13]) of 774.7.
Work on `N=C(N)N` [GUANIDINE] yielded a Cell viability (Vero [14]) of 1.41, a Cytotoxicity (Vero [7]) of 825.7 and a Cytotoxicity (Vero [2]) of 839.4. It also gave a Cell viability (Vero [3]) of 1.45, a TCID50 (Coxsackievirus B5 [15]) of 10000 mL⁻¹ and a TCID50 (Coxsackievirus B5 [5]) of 1000000 mL⁻¹.
In the case of `O=[N+]([O-])c1ccccc1S(=O)(=O)n1c(CCc2ccccn2)nc2ccccc21`, the Cell viability (Vero [16]) is reported as 0.82 and 1.23, the TCID50 (Coxsackievirus B5 [17]) is reported as 100000 mL⁻¹ and the Cytotoxicity (Vero [7]) is reported as 627.8. It also gave a TCID50 (Mumps virus [18]) of 10000 mL⁻¹, an IC50 (Coxsackievirus B5 [19]) of 5 µg/mL (≈ 12.2 µM) and an Activity (Human alphaherpesvirus 1 [20]) of 1800000 pfu/ml. For the same compound, the Cytotoxicity (Vero [4]) was 759.5 and the Activity (Vaccinia virus [21]) was 750 pfu/ml.
`O=[N+]([O-])c1ccc(S(=O)(=O)n2c(Sc3ncccc3[N+](=O)[O-])nc3cc(Cl)c(Cl)cc32)cc1` showed a Cell viability (Vero [1]) of 0.79, a Cytotoxicity (Vero [2]) of 595.6 and a Cell viability (Vero [3]) of 1.27. It also gave a Cytotoxicity (Vero [4]) of 456.1 and a TCID50 (Coxsackievirus B5 [5]) of 1000000 mL⁻¹.
Work on `O=[N+]([O-])c1ccccc1S(=O)(=O)n1c(CCc2ccccn2)nc2cc(Cl)c(Cl)cc21` yielded a Cytotoxicity (Vero [7]) of 784.8, an Activity (Vaccinia virus [22]) of 120 pfu/ml and a Cell viability (Vero [11]) of 1.49. For the same compound, the IC50 (Coxsackievirus B5 [19]) was 8 µg/mL (≈ 16.8 µM), the TCID50 (Coxsackievirus B5 [12]) was 1000000 mL⁻¹ and the Activity (Human alphaherpesvirus 1 [23]) was 4700000 pfu/ml. It also gave a Cell viability (Vero [9]) of 1.36, a Cytotoxicity (Vero [13]) of 840.5 and a TCID50 (Mumps virus [24]) of 100000 mL⁻¹.
